Results on five molecules are retold here after PubChem BioAssay AID256 (DTP/NCI, 2004).

The test system of the experiment is CD2F1 mice, L1210 leukemia ip, survival T/C. In words: NCI In Vivo Anticancer Drug Screen. Data for tumor model L1210 Leukemia (intraperitoneal) in CD2F1 (CDF1) mice. The conditions noted are these: endpoint: mean survival time, higher = longer survival. Put shortly: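 Read-out first: treated-group measurement over vehicle-control measurement, expressed as a ratio. Animals bore a transplanted tumor line and were dosed with compound or vehicle.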

The mark [1] stands for this setting: dose: 100.0 mg/kg/injection, schedule: Q04DX003 (ip), vehicle: saline with Tween-80.
[2] abbreviates: dose: 200.0 mg/kg/injection, schedule: Q04DX003 (ip), vehicle: saline with Tween-80.
The mark [3] stands for this setting: dose: 50.0 mg/kg/injection, schedule: Q01DX009 (ip), vehicle: saline.
[4] abbreviates: dose: 100.0 mg/kg/injection, schedule: Q01DX009 (ip), vehicle: saline.

The structures appear in SMILES notation. Toxic doses and inconclusive results are not listed.

For the molecule `CCC(C)[Se][Se]C(C)CC` (stereo not drawn), the T/C (dose: 25.0 mg/kg/injection, schedule: Q04DX003 (ip), vehicle: saline with Tween-80) is 93 % of control.
As to `O=[N+]([O-])c1ccc(SSc2ccc([N+](=O)[O-])cn2)nc1`, the T/C reads like this: (dose: 50.0 mg/kg/injection, schedule: Q01DX009 (ip), vehicle: saline with Tween-80) 93 % of control; (dose: 100.0 mg/kg/injection, schedule: Q01DX009 (ip), vehicle: saline with Tween-80) 89 % of control; under setting [1], 100 % of control; under setting [2], 100 % of control.
As to `C=CCSc1cccc(C)c1`, the T/C runs as follows: (dose: 100.0 mg/kg/injection, schedule: Q01DX001 (ip), vehicle: saline) 96 % of control; (dose: 200.0 mg/kg/injection, schedule: Q01DX001 (ip), vehicle: saline) 97 % of control.
In the case of `NCCNCCNCCNCCN` (tested in a mixture with another compound), the T/C is 104 % of control under setting [3], 111 % of control under setting [4], 110 % of control under setting [1] and 105 % of control under setting [2].
Take `Cc1cc2[nH]cnc2cc1Cl`: the T/C is 98 % of control under setting [3] and 106 % of control under setting [4].
